Legend:
[1] = Cremaster muscle arterial puncture model of hemostasis; type: in vivo, mouse; conditions: laser puncture of cremaster arteriole; vs control treated mice
Experimental: Mice were anesthetized, tail vein injected with anti-platelet and anti-fibrin antibodies and their cremaster muscle arterioles were prepared as described above. A high intensity laser pulse from the laser ablation system was used to puncture a hole in the cremaster muscle arteriole wall as visualized by red blood cell (RBC) leakage from the vessel. Images of RBCs leakage and hemostatic plug formation were acquired in real-time with a fluorescent microscope as described above. Arterial bleeding time was defined as the time from laser pulse injury until cessation of RBC leakage from the vessel.

Tail bleeding assay = type: in vivo, mouse; conditions: mice retro-orbitally injected; 5 mm tail tip excised; vs control
Experimental: Mice were anesthetized with ketamine/xyzaline and placed on a heating pad in prone position, the tip of the tail (5 mm) was excised with a sterile scalpel, and the tails were immediately immersed into isotonic saline solution (0.9%) warmed to 37° C. Bleeding time was assessed until cessation of blood flow from the tail for 1 minute.

adenylyl cyclase = test: LC/MS quantification of cAMP in washed human platelets; type: cell-based; conditions: 25 μM, 1 min; platelets pre-treated with 10 μM IBMX; vs DMSO
Experimental: Washed human platelets were treated with the specific ligand or vehicle control for 1 min at room temperature, and quenched with an equal volume of ice-cold 2× platelet lysis buffer containing protease and phosphatase inhibitors. Lysed platelet samples were centrifuged at 14,000 g for 7 min at 4° C. to pellet cytoskeleton and the supernatant was stored in −80° C.
To prepare the sample for LC/MS injection, 200 μL of the supernatant was spiked with 400 pg of adenosine-3′,5′-cyclic-13C5 monophosphate (^13C5-cAMP) (Toronto Research Chemicals, Inc.), an internal standard, and 600 μL of LC/MS grade acetonitrile (Fisher Scientific). The sample was briefly vortexed and centrifuged at 14,000 rpm for 10 min at 4° C. The supernatants were then air dried in a SpeedVac and reconstituted in 200 μL of LC/MS grade water and centrifuged at 10,000 rpm for 5 min at 4° C. and used for LC/MS injection.
The separation and detection of cAMP was performed on a Waters ACQUITY UPLC system equipped with a Xevo Triple Quadrupole Mass Spectrometer (TQ-S MS/MS). […]
The mass spectrometer was operated with an ESI source in positive mode. […] Cyclic AMP (cAMP) was quantitated using ^13C5-cAMP as the internal standard. […]

Gαs = test: [35S]GTPγS binding to immunoprecipitated Gαs, platelet membranes; type: biochemical; conditions: 25 μM; human platelet membranes; vs DMSO
Experimental: PRP was isolated from whole blood as described above and then incubated with 1 mM aspirin for 1 hour at 37° C. Platelets were pelleted at 2000 g for 10 min in the presence of 10×ACD and apyrase. The pelleted platelets were washed with Tyrode's and centrifuged at 2000×g with 10×ACD for 10 min at room temperature. The platelets were flash frozen with liquid nitrogen and then resuspended in cold detergent-free TME buffer (50 mM Tris-HCl, pH 7.5, 20 mM MgCl2, 2 mM EDTA, and 100 mM NaCl) with 1 μM GDP and protease and phosphatase inhibitors to lyse the platelets. The lysed platelets were centrifuged at 1500 g at 4° C. for 5 min. The supernatant was collected and centrifuged at 100,000×g for 30 min at 4° C. The pelleted membranes were resuspended in TME buffer with 1 μM GDP and stored at −80° C. prior to use. Fatty acid metabolites, agonists, or DMSO and [^35S]GTPγS (10 nM) were added to platelet membranes (60 μg/reaction) on ice, and the tubes were immediately transferred to a 30° C. water bath shaker for 20 min. The reaction was terminated by the addition of ice-cold IP buffer (50 mM Tris-HCl, pH 7.5, 20 mM MgCl2, 150 mM NaCl, 0.5% Nonidet P-40, 0.33% aprotinin, 0.1 mM GDP, and 0.1 mM GTP). The samples were pre-cleared with Protein A agarose beads and normal rabbit IgG for 30 min on a nutator at 4° C. and then aliquoted equally into two tubes containing either normal rabbit IgG or a Gs antibody that had been conjugated to Protein A agarose beads. The samples were incubated on a nutator for 1 hr at 4° C. and washed 4 times with IP buffer and 1 time in TME buffer. The samples were boiled in 0.5% SDS for 30 sec, and the supernatants were collected following brief centrifugation. The supernatants were analyzed in 8 mL of scintillation fluid. The background counts for the normal rabbit IgG (50-200 cpm) for each sample were subtracted from the anti-Gs immunoprecipitated samples prior to analyzing the data.

washed human platelets = test: Human platelet aggregation after pre-treatment with adenylyl cyclase inhibitor SQ 22536; type: cell-based; conditions: platelets pre-treated with SQ 22536 (25 μM, 20 min); 12-HETrE 7.5 to 25 μM, 1 min; EC80 PAR4-AP
Experimental: Blood from healthy donors was collected into vacutainers containing buffered sodium citrate, and platelets were isolated by serial centrifugation as described above for mouse platelets. The platelets were resuspended in Tyrode's buffer at 3×10^8 platelets/mL, unless otherwise specified.
A lumi-aggregometer (Chrono-log model 700D) was used to measure platelet aggregation under stirring conditions (1100 rpm) at 37° C. […]

CCCCC/C=C\C[C@H](O)/C=C/C=C\CCCCCCC(=O)O [12(S)-HETrE, 12(S)-hydroxy-8Z,10E,14Z-eicosatrienoic acid]
duration of RBC leakage (arterial bleeding time) [1]: No significant difference in the duration of RBC leakage
tail bleeding time (Tail bleeding assay): no significant difference in tail bleeding time
level of intracellular cAMP (adenylyl cyclase): significant increase in the level of intracellular cAMP
[35S]GTPγS binding to immunoprecipitated Gαs (Gαs): significant increase in [^35S]GTPγS binding
PAR4-AP-mediated platelet aggregation (washed human platelets): unable to inhibit PAR4-AP-mediated platelet aggregation

Source: patent publication US11111222B2, “Hydroxyeicosatrienoic acid compounds and their use as therapeutic agents” (THE REGENTS OF THE UNIVERSITY OF MICHIGAN, priority 2016, dated 2021)
